Measured values: ChEMBL document CHEMBL3885861, “Open TG-GATES”

Species on record: Rattus norvegicus
Experiment: Open TG-GATES - Regimen: Single
Type: toxicity, organism-based, Sprague-Dawley
Design: regimen Single, gender Male, age 6 weeks
Settings: in vivo, po, 300 mg/kg, route gavage, dose level Low; for APTT / Bas / Eos / Fbg / Hb / Ht / Lym / MCH / MCHC / MCV / Mono / Neu / PT / Plat / RBC / Ret / WBC: tissue Blood; for KIDNEY_L / KIDNEY_R / KIDNEY_TOTAL: tissue Kidney; for LIVER: tissue Liver; for A/G / ALP / ALT / AST / BUN / CRE / Ca / Cl / DBIL / GLC / IP / K / LDH / Na / PL / RALB / TBIL / TC / TG / TP / gamma-GTP: tissue Plasma

SMILES: Clc1c(Cl)c(Cl)c(Cl)c(Cl)c1Cl [PERCHLOROBENZENE]
- TERMINAL_BW (3 h): 219 g
- APTT (3 h): 18.9 s
- Bas (3 h): 0%
- Eos (3 h): 1%
- Fbg (3 h): 225 mg/dL
- Hb (3 h): 13.3 g/dL
- Ht (3 h): 37.8%
- Lym (3 h): 72.2%
- MCH (3 h): 21.8 pg
- MCHC (3 h): 35.2%
- MCV (3 h): 61.7 fL
- Mono (3 h): 2.8%
- Neu (3 h): 23.2%
- PT (3 h): 11.9 s
- Plat (3 h): 121.8 x10_4/uL
- RBC (3 h): 613.6 x10_4/ul
- Ret (3 h): 7.1%
- WBC (3 h): 86.9 x10_2/uL
- KIDNEY_L (3 h): 1 g
- KIDNEY_R (3 h): 1 g
- KIDNEY_TOTAL (3 h): 2 g
- LIVER (3 h): 9.9 g
- A/G (3 h): 1.7
- ALP (3 h): 1023.6 IU/L
- ALT (3 h): 42.4 IU/L
- AST (3 h): 87.2 IU/L
- BUN (3 h): 10.2 mg/dL
- CRE (3 h): 0.4 mg/dL
- Ca (3 h): 10.7 mg/dL
- Cl (3 h): 103 meq/L
- DBIL (3 h): 0.062 mg/dL
- GLC (3 h): 195.8 mg/dL
- IP (3 h): 9.2 mg/dL
- K (3 h): 3.9 meq/L
- LDH (3 h): 211 IU/L
- Na (3 h): 140.2 meq/L
- PL (3 h): 145.8 mg/dL
- RALB (3 h): 3.4 g/dL
- TBIL (3 h): 0.1 mg/dL
- TC (3 h): 72.6 mg/dL
- TG (3 h): 109 mg/dL
- TP (3 h): 5.4 g/dL
- gamma-GTP (3 h): 1 IU/L
- TERMINAL_BW (6 h): 218.5 g
- APTT (6 h): 17.9 s
- Bas (6 h): 0.2%
- Eos (6 h): 1%
- Fbg (6 h): 233.6 mg/dL
- Hb (6 h): 13.6 g/dL
- Ht (6 h): 38.5%
- Lym (6 h): 77.2%
- MCH (6 h): 21.9 pg
- MCHC (6 h): 35.3%
- MCV (6 h): 62 fL
- Mono (6 h): 3.6%
- Neu (6 h): 17.2%
- PT (6 h): 11.9 s
- Plat (6 h): 123.5 x10_4/uL
- RBC (6 h): 623.6 x10_4/ul
- Ret (6 h): 7%
- WBC (6 h): 100 x10_2/uL
- KIDNEY_L (6 h): 1 g
- KIDNEY_R (6 h): 1 g
- KIDNEY_TOTAL (6 h): 1.9 g
- LIVER (6 h): 8.9 g
- A/G (6 h): 1.6
- ALP (6 h): 1089 IU/L
- ALT (6 h): 31.4 IU/L
- AST (6 h): 73.2 IU/L
- BUN (6 h): 8.4 mg/dL
- CRE (6 h): 0.4 mg/dL
- Ca (6 h): 10.5 mg/dL
- Cl (6 h): 102.8 meq/L
- DBIL (6 h): 0.072 mg/dL
- GLC (6 h): 190.6 mg/dL
- IP (6 h): 9.4 mg/dL
- K (6 h): 4.1 meq/L
- LDH (6 h): 224.4 IU/L
- Na (6 h): 140.8 meq/L
- PL (6 h): 130.6 mg/dL
- RALB (6 h): 3.4 g/dL
- TBIL (6 h): 0.1 mg/dL
- TC (6 h): 70.2 mg/dL
- TG (6 h): 56 mg/dL
- TP (6 h): 5.5 g/dL
- gamma-GTP (6 h): 1 IU/L
- TERMINAL_BW (9 h): 213.9 g
- APTT (9 h): 18.1 s
- Bas (9 h): 0%
- Eos (9 h): 0.8%
- Fbg (9 h): 228 mg/dL
- Hb (9 h): 13.9 g/dL
- Ht (9 h): 39.4%
- Lym (9 h): 78.6%
- MCH (9 h): 21.6 pg
- MCHC (9 h): 35.2%
- MCV (9 h): 61.5 fL
- Mono (9 h): 3%
- Neu (9 h): 16%
- PT (9 h): 12.5 s
- Plat (9 h): 125.7 x10_4/uL
- RBC (9 h): 641.2 x10_4/ul
- Ret (9 h): 6.4%
- WBC (9 h): 85.4 x10_2/uL
- KIDNEY_L (9 h): 1 g
- KIDNEY_R (9 h): 0.9 g
- KIDNEY_TOTAL (9 h): 1.9 g
- LIVER (9 h): 8.7 g
- A/G (9 h): 1.6
- ALP (9 h): 857 IU/L
- ALT (9 h): 30.6 IU/L
- AST (9 h): 75.4 IU/L
- BUN (9 h): 9.8 mg/dL
- CRE (9 h): 0.4 mg/dL
- Ca (9 h): 10.5 mg/dL
- Cl (9 h): 104.2 meq/L
- DBIL (9 h): 0.066 mg/dL
- GLC (9 h): 202.8 mg/dL
- IP (9 h): 10.2 mg/dL
- K (9 h): 3.8 meq/L
- LDH (9 h): 222 IU/L
- Na (9 h): 142.6 meq/L
- PL (9 h): 119.8 mg/dL
- RALB (9 h): 3.4 g/dL
- TBIL (9 h): 0.1 mg/dL
- TC (9 h): 63.6 mg/dL
- TG (9 h): 44.8 mg/dL
- TP (9 h): 5.5 g/dL
- gamma-GTP (9 h): 1.2 IU/L
- TERMINAL_BW (24 h): 230 g
- APTT (24 h): 17.8 s
- Bas (24 h): 0.8%
- Eos (24 h): 1%
- Fbg (24 h): 225 mg/dL
- Hb (24 h): 13.6 g/dL
- Ht (24 h): 38.8%
- Lym (24 h): 78%
- MCH (24 h): 21.9 pg
- MCHC (24 h): 35.1%
- MCV (24 h): 62.4 fL
- Mono (24 h): 3%
- Neu (24 h): 17.2%
- PT (24 h): 11.8 s
- Plat (24 h): 114.2 x10_4/uL
- RBC (24 h): 621 x10_4/ul
- Ret (24 h): 6.4%
- WBC (24 h): 81.3 x10_2/uL
- KIDNEY_L (24 h): 1 g
- KIDNEY_R (24 h): 1 g
- KIDNEY_TOTAL (24 h): 2.1 g
- LIVER (24 h): 11 g
- A/G (24 h): 1.6
- ALP (24 h): 883.2 IU/L
- ALT (24 h): 32 IU/L
- AST (24 h): 61.8 IU/L
- BUN (24 h): 13.2 mg/dL
- CRE (24 h): 0.4 mg/dL
- Ca (24 h): 10.9 mg/dL
- Cl (24 h): 103.2 meq/L
- DBIL (24 h): 0.058 mg/dL
- GLC (24 h): 202.4 mg/dL
- IP (24 h): 7.1 mg/dL
- K (24 h): 3.9 meq/L
- LDH (24 h): 196 IU/L
- Na (24 h): 141.6 meq/L
- PL (24 h): 143.8 mg/dL
- RALB (24 h): 3.3 g/dL
- TBIL (24 h): 0.1 mg/dL
- TC (24 h): 77.6 mg/dL
- TG (24 h): 118.8 mg/dL
- TP (24 h): 5.5 g/dL
- gamma-GTP (24 h): 1.2 IU/L
